In article PMC6152416, “Pharmacological and Toxicological Screening of Novel Benzimidazole-Morpholine Derivatives as Dual-Acting Inhibitors” (Molecules : A Journal of Synthetic Chemistry and Natural …, 2017):
Values after ≈ are worked out from the molar mass of the structure shown. “Also recorded” adds a separate entry of the source. Where two headings read alike, the source gives them in different places. Marks after values point to notes of the source that are not given here.

Columns and labels:
[1] = tested on: Pseudomona aeuroginosa ATCC 27853; experiment: Antimicrobial broth microdilution (CLSI M07-A9); assay type: cell-based
Protocol: Microbiological studies were performed according to CLSI reference M07-A9 broth microdilution method for bacterial strains and EUCAST definitive method EDef 7.1 for Candida species. Synthesized compounds were tested for their in vitro growth inhibitory activity against Escherichia coli ATCC 35218, Escherichia coli ATCC 25922, Staphylococcus aureus, ATCC 25923, Pseudomona aeuroginosa ATCC 27853, Enterococcus faecalis ATCC29212, Klebsiella pneumoniae ATCC700603 Listeria monocytogenes ATCC7644, Candida albicans ATCC90028, Candida glabrata ATCC 90030, Candida krusei ATCC 6258, Candida parapsilosis ATCC 22019.
The cultures were obtained from Mueller-Hinton broth (Difco) for the bacterial strains and the yeasts were maintained in Roswell Park Memorial Institute (RPMI) medium, after an overnight incubation at 37 °C for both. The inocula of the test microorganisms were adjusted to match an equivalent turbidity of a 0.5 McFarland standard, which was determined using a spectrophotometer; the final inoculum size was determined to be 0.5–2.5 × 10^5 cfu/mL for antibacterial and antifungal assays. The tests were carried out for both mediums at pH = 7 and two-fold serial dilutions were applied. The last well on the microplates, which was containing only the inoculated broth, was kept as control, and the last well with no growth of microorganism was recorded to represent the minimum inhibitory concentration (MIC50) in μg/mL. For both of the antibacterial and antifungal assays, the test compounds and reference drugs were firstly dissolved in DMSO, and further dilutions were performed to the desired concentrations of 1000, 500, 250, 125, 62.5, 31.25, 15.6, 7.8, 3.9 and 1.95 μg/mL using Mueller–Hinton broth and RPMI medium. The completed plates were incubated for 24 h, and at the end of the incubation, resazurin (20 µg/mL) was added into each well to control the growth in the wells. Final plates including microorganism strains were incubated for 2 h. MIC50 values were determined using microplate reader at […] wavelengths; MIC50 readings were performed twice for entire compounds. Chloramphenicol and ketoconazole were used as reference drugs.

[2] = tested on: Salmonella typhimurium TA98; experiment: Ames MPF genotoxicity assay; assay type: cell-based
Protocol: (§1) The genotoxicity of selected compounds (2b, 2j, 2m) was determined by Ames assay using Ames MPF 98/100 mutagenicity assay sample kit (Xenometrix AG, Allschwil, Switzerland) as previously described elsewhere. Salmonella typhimurium strains, TA98 (frameshift mutations) and TA100 (base-pair substitutions) were used in the assay. The concentration of the compounds was between 16 and 5000 μg/mL, in accordance with the guideline. Compounds were prepared in six different concentrations (5.0, 2.5, 1.25, 0.625, 0.3125, 0.156 mg/mL) in DMSO. Mutagenic potential was determined in the absence or presence of Aroclor™-1254 induced male Sprague–Dawley rat liver microsomal enzyme (S9) mix (Xenometrix AG). Positive controls without S9 mix were 2-nitrofluorene (2.0 μg/mL) and 4-nitroquinoline N-oxide (0.1 μg/mL), whereas 1.0 μg/mL and 2.5 μg/mL of 2-aminoanthracene solutions were used as positive controls with S9 against TA98 and TA100, respectively. Solvent control was prepared with 4% DMSO. The end of an experiment was determined by the change of the indicator medium colour to yellow, which was originating from the decrease of pH due to revertant bacteria. Yellow wells were counted as positive, and compared with the negative control. Fold induction over the negative control and fold induction over the baseline were calculated (Fold induction over the negative control is accepted as the ratio of the mean number of positive wells for the dose concentration divided by the mean number of positive wells for the zero dose (negative) control. Fold induction over the baseline is accepted as the ratio of the mean number of positive wells for the dose concentration divided by zero dose baseline. The zero-dose baseline is obtained by adding one standard deviation to the mean number of positive wells of the zero dose control. If the baseline is less than 1, the value is set to 1 for calculation).
(§2) Mutagenicity was determined according to the criteria reported previously. For a baseline value of ≤3, significant increases between 2 and 3-fold of the baseline were classified as weak mutagen, and increases ≥3-fold of the baseline were classified as mutagen. […] As a rule, at least two adjacent doses with significant increases or a significant increase at the highest dose level should be observed for a mutagenic compound. All of the doses were compared according to Student’s t-test at p < 0.05 for statistical significance.

[3] = tested on: Salmonella typhimurium TA100; experiment: Ames MPF genotoxicity assay; assay type: cell-based
Protocol: as §1, §2

AChE = AChE (Homo sapiens, UniProt P22303); assay type: biochemical
AChE, sequence (P22303 32-614): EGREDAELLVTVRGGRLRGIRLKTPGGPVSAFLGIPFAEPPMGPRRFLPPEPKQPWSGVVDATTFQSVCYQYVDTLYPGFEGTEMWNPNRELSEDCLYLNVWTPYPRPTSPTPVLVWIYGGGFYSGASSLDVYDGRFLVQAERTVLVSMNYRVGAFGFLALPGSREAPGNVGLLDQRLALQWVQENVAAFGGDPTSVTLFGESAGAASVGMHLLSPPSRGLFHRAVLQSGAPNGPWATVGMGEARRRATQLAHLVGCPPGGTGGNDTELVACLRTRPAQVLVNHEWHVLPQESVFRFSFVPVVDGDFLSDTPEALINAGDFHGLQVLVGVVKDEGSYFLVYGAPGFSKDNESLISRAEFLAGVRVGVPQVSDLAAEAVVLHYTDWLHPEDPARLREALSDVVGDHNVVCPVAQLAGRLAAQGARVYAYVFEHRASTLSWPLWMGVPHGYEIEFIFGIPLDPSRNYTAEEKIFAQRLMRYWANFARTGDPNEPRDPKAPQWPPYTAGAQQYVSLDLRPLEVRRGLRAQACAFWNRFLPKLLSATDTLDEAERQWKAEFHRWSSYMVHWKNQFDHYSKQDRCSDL

## COc1ccc(-c2nc3ccccc3n2CCN2CCOCC2)cc1 [Compound 2b, 2-(4-Methoxyphenyl)-1-[2-(morpholin-4-yl)ethyl]-1H-benzimidazole]
[1]; Pseudomona aeuroginosa ATCC 27853
  fold lower MIC50 / greater activity than chloramphenicol: 16 fold
[1]; Pseudomona aeuroginosa [sic] ATCC 27853
  MIC50: 0.0156 µg/mL (≈ 0.0462 µM)
[2]; TA98, S9+, 0.156 mg/mL
  REVERTANTS Fold Increase (over Baseline): 0.16
[2]; TA98, S9+, 0.3125 mg/mL
  REVERTANTS Fold Increase (over Baseline): 0.32
[2]; TA98, S9+, 0.625 mg/mL
  REVERTANTS Fold Increase (over Baseline): 0.00
[2]; TA98, S9+, 1.25 mg/mL
  REVERTANTS Fold Increase (over Baseline): 0.48
[2]; TA98, S9+, 2.5 mg/mL
  REVERTANTS Fold Increase (over Baseline): 0.80
[2]; TA98, S9+, 5 mg/mL
  REVERTANTS Fold Increase (over Baseline): 1.27
[2]; TA98, S9−, 0.156 mg/mL
  REVERTANTS Fold Increase (over Baseline): 0.69
[2]; TA98, S9−, 0.3125 mg/mL
  REVERTANTS Fold Increase (over Baseline): 0.75
[2]; TA98, S9−, 0.625 mg/mL
  REVERTANTS Fold Increase (over Baseline): 0.81
[2]; TA98, S9−, 1.25 mg/mL
  REVERTANTS Fold Increase (over Baseline): 0.40
[2]; TA98, S9−, 2.5 mg/mL
  REVERTANTS Fold Increase (over Baseline): 0.40
[2]; TA98, S9−, 5 mg/mL
  REVERTANTS Fold Increase (over Baseline): 0.75
[2]; TA98, in the presence/absence of metabolic activation (S9)
  Ames MPF mutagenicity classification: non-genotoxic; also recorded: non-mutagenic
[3]; TA100, S9+, 0.156 mg/mL
  REVERTANTS Fold Increase (over Baseline): 0.06
[3]; TA100, S9+, 0.3125 mg/mL
  REVERTANTS Fold Increase (over Baseline): 0.52
[3]; TA100, S9+, 0.625 mg/mL
  REVERTANTS Fold Increase (over Baseline): 0.45
[3]; TA100, S9+, 1.25 mg/mL
  REVERTANTS Fold Increase (over Baseline): 0.26
[3]; TA100, S9+, 2.5 mg/mL
  REVERTANTS Fold Increase (over Baseline): 0.26
[3]; TA100, S9+, 5 mg/mL
  REVERTANTS Fold Increase (over Baseline): 0.13
[3]; TA100, S9−, 0.156 mg/mL
  REVERTANTS Fold Increase (over Baseline): 1.31 ***
[3]; TA100, S9−, 0.3125 mg/mL
  REVERTANTS Fold Increase (over Baseline): 1.37 ***
[3]; TA100, S9−, 0.625 mg/mL
  REVERTANTS Fold Increase (over Baseline): 0.69
[3]; TA100, S9−, 1.25 mg/mL
  REVERTANTS Fold Increase (over Baseline): 0.62
[3]; TA100, S9−, 2.5 mg/mL
  REVERTANTS Fold Increase (over Baseline): 0.25 ***
[3]; TA100, S9−, 5 mg/mL
  REVERTANTS Fold Increase (over Baseline): 0.44 *
[3]; TA100, with/without metabolic activation (S9)
  Ames MPF mutagenicity classification: non-genotoxic
AChE; 10^-3 M
  AChE Inhibition (%): 5.19%
AChE; 10^-4 M
  AChE Inhibition (%): 5.19%
